In ChEMBL document CHEMBL1155037, “BACE1 inhibitory effects of lavandulyl flavanones from Sophora flavescens” (Bioorg Med Chem, 2008):
Active and inactive are the calls of the source. The calls are words filed in the database; no cut-off is given here.

Experiments:
Beta-secretase 1 [1] = target: T1, Beta-secretase 1 (Homo sapiens, UniProt P56817); experiment: Inhibition of human BACE1 expressed in HEK293 cells assessed as reduction in soluble APPalpha level after 4 hrs by Western blot analysis; format: cell-based
T1 sequence (P56817 whole entry): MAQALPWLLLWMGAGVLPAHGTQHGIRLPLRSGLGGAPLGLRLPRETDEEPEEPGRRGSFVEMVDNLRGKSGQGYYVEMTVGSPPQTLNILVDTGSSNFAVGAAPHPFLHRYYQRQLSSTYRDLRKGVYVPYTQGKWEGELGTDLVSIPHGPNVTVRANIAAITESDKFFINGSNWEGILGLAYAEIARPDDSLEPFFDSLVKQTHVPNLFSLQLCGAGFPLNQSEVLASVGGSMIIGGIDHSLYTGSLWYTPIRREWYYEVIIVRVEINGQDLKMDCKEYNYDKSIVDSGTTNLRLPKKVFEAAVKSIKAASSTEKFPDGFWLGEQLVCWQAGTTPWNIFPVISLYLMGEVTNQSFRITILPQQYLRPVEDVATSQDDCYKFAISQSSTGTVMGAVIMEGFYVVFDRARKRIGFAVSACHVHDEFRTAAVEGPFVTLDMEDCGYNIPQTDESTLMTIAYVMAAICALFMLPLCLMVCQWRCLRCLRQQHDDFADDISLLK

Beta-secretase 1 [2] = target: T1, Beta-secretase 1; experiment: Inhibition of human BACE1 expressed in HEK293 cells assessed as reduction in soluble APPbeta level after 4 hrs by Western blot analysis; format: cell-based; parameters: concentration or dose not given beside the values
Beta-secretase 1 [3] = target: T1, Beta-secretase 1; experiment: Inhibition of human BACE1

Activity (Beta-secretase 1 [1])	Activity (Beta-secretase 1 [2])	IC50 (Beta-secretase 1 [3])	Ki (Beta-secretase 1 [3])	SMILES
Active	51.1%	6.7 µM	10.6 µM	C=C(C)[C@H](CC=C(C)C)Cc1c(O)cc(OC)c2c1O[C@H](c1ccc(O)cc1OC)CC2=O
		27.7 µM		COc1cc(O)c(CC=C(C)C)c2c1C(=O)CC(c1ccc(O)cc1)O2 (stereo not drawn) [ISOXANTHOHUMOL]
		39.2 µM		C=C(C)[C@H](CCC(C)(C)O)Cc1c(O)cc(OC)c2c1O[C@H](c1ccc(O)cc1O)CC2=O [KURARINOL]
Active	51.9%	3.3 µM	7.2 µM	C=C(C)C(CC=C(C)C)Cc1c(O)cc(OC)c2c1O[C@H](c1ccc(O)cc1O)CC2=O (stereo partly drawn) [KURARINONE]
Active	61.8%	2.6 µM	3 µM	C=C(C)[C@H](CC=C(C)C)Cc1c(O)cc(O)c2c1O[C@H](c1ccccc1O)CC2=O [KUSHENOL A]
		36.8 µM		C=C(C)[C@H](CCC(C)(C)O)Cc1c(O)cc(O)c2c1O[C@H](c1ccccc1O)CC2=O [KUSHENOL T]
Dose-dependent effect	40.7%	8.4 µM	3.9 µM	C=C(C)[C@H](CC=C(C)C)Cc1c(O)cc(O)c2c1O[C@H](c1ccc(O)cc1OC)CC2=O [LEACHIANONE A]
Active	56%	5.2 µM	1.1 µM	C=C(C)[C@H](CC=C(C)C)Cc1c(O)cc(O)c2c1O[C@H](c1ccc(O)cc1O)CC2=O [SOPHORAFLAVANONE G]
